Measurements reported in PubChem BioAssay (NCI).
Values joined by “and” are separate entries in the source; they are usually repeats but may differ in a detail not shown here. Equal entries are not always repeated.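 Tested at 5 concentrations; 48 h exposure; 96-well plates; endpoints linearly interpolated, else capped at highest concentration. Abbreviation: GI50, concentration required for 50% inhibition of growth. TGI denotes the concentration required for complete inhibition of growth.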

Key:
Experiment in all cases: DTP human tumour cell line panel, 48 h
[1] = test system: ACHN renal
[2] = test system: EKVX NSCLC
[3] = test system: HCT-116 colon
[4] = test system: HT29 colon
[5] = test system: MOLT-4 leukemia
[6] = test system: SNB-75 CNS
[7] = test system: TK-10 renal
[8] = test system: UACC-62 melanoma
[9] = test system: HS 578T breast
[10] = test system: BT-549 breast

| Compound | TGI [1] | TGI [2] | TGI [3] | TGI [4] | TGI [5] | TGI [6] | TGI [7] | TGI [8] | GI50 [1] | GI50 [9] | TGI [9] | GI50 [5] | GI50 [6] | GI50 [7] | GI50 [10] | TGI [10] | GI50 [2] | GI50 [3] | GI50 [8] | GI50 [4] |
| --- | --- | --- | --- | --- | --- | --- | --- | --- | --- | --- | --- | --- | --- | --- | --- | --- | --- | --- | --- | --- |
| CC(=O)N1CCN(C=S)CC1 | > 100 µM | > 100 µM | > 100 µM | > 100 µM | > 100 µM | > 100 µM | > 100 µM | > 100 µM |  |  |  |  |  |  |  |  |  |  |  |  |
| CCC12C=CCN3CCC4(C(=C(C(=O)OC)C1)Nc1ccccc14)[C@H]32 (some centres not stated) | > 100 µM | > 100 µM | > 100 µM | 46.8 µM | 93 µM | 69 µM | > 100 µM | 67.6 µM |  |  |  |  |  |  |  |  |  |  |  |  |
| N#CC1([N+](=O)[O-])C=C1c1ccccc1 (configuration not stated) | > 100 µM | > 100 µM | > 100 µM | > 100 µM | > 100 µM |  | > 100 µM | 66.3 µM |  |  |  |  |  |  |  |  |  |  |  |  |
| COc1ccc2c(c1)O/C(=C\c1ccc([N+](=O)[O-])s1)C2=O | > 100 µM |  |  |  | > 100 µM | 39.2 µM | > 100 µM |  | 1.41 µM | 2.61 µM | > 25.2 µM | 2.26 µM | 2.36 µM | > 22.5 µM |  |  |  |  |  |  |
| COC(=O)C(C(=O)C(=O)Nc1ccc(N)cc1[N+](=O)[O-])c1nc2ccc(Cl)cc2[nH]c1=O (configuration not stated) | > 100 µM | > 100 µM | > 100 µM | > 100 µM | > 100 µM | > 100 µM | > 100 µM | > 100 µM |  |  |  |  |  |  |  |  |  |  |  |  |
| N#CCCn1c(CCC(=O)Nc2ccc(Cl)cc2Cl)n[nH]c1=S | > 100 µM |  | > 100 µM | > 100 µM | > 100 µM | > 100 µM | > 100 µM | > 100 µM |  |  |  |  |  |  |  |  |  |  |  |  |
| CCCCCCC(=O)CC(=O)C(=O)Nc1ccccc1C | > 100 µM | > 100 µM | > 100 µM | > 100 µM | > 100 µM | > 100 µM | > 100 µM | > 100 µM |  |  |  |  |  |  |  |  |  |  |  |  |
| O=C1OC(=O)C2C1C1C(c3ccccc3)=C(c3ccccc3)C2(O)C2C(=O)OC(=O)C12 (configuration not stated) | > 100 µM | > 100 µM | > 100 µM | > 100 µM | > 100 µM | > 100 µM | > 100 µM | > 100 µM |  |  |  |  |  |  |  |  |  |  |  |  |
| CCN1C(=O)N(CC)C2C1NN=c1s/c(=C\c3cnc(C)n3C)c(=O)n12 (configuration not stated) | > 100 µM | > 100 µM | > 100 µM |  | > 100 µM | 3.44 µM | > 100 µM | 88 µM | 5.94 µM |  |  | 3.24 µM | 0.324 µM | 7.19 µM | 3.66 µM | 90.9 µM | 3.65 µM | 2.43 µM | 1.14 µM |  |
| C/C(=N\NS(=O)(=O)c1ccccc1)c1ccc[n+]([O-])n1 | > 100 µM | > 100 µM | > 100 µM | > 100 µM | > 100 µM | > 100 µM |  | > 100 µM |  |  |  |  |  |  |  |  |  |  |  |  |
| O=S1(=O)C=C(c2ccccc2)C(c2ccccc2)=C1 | 2.88 µM | 6.21 µM | 2.28 µM |  |  | 2.6 µM |  | 3.64 µM | 1.55 µM | 1.18 µM | 3.5 µM |  | 1.33 µM |  |  |  | 2.08 µM | 1.09 µM | 1.73 µM |  |
| Nc1nc(N)c(-c2ccc(Cl)cc2)c(/C=C/c2ccc([N+](=O)[O-])cc2)n1 | > 100 µM |  | > 100 µM | > 100 µM | > 100 µM | 34 µM |  |  | 3.85 µM | 9.97 µM | > 100 µM | 8.27 µM | 5 µM |  | 13.1 µM | 90.3 µM |  | 3.97 µM |  | 4.99 µM |
| C[C@H](CCCOS(C)(=O)=O)[C@H]1CC[C@H]2[C@@H]3CC[C@@H]4C[C@H](OS(C)(=O)=O)CC[C@]4(C)[C@H]3CC[C@]12C |  | > 2500 µM | 1240 µM | > 2500 µM |  |  |  |  | 395 µM | 423 µM |  |  |  | 607 µM |  |  | 865 µM | 532 µM | 710 µM | 1920 µM |
| CN(C)c1ccc(/C=c2\sc3nnc(Cc4ccccc4)n3c2=O)cc1 | > 100 µM | > 100 µM | > 10 µM and 35.4 µM | > 100 µM | > 100 µM | > 100 µM | > 100 µM | > 100 µM | > 10 µM |  |  | > 100 µM | > 100 µM | > 100 µM |  |  | > 100 µM | > 10 µM | > 100 µM | > 10 µM |
| C=C1CC(CC(=O)C(C)CC2CC(=C)C(=O)O2)OC1=O (configuration not stated) | 35.1 µM | > 100 µM | 24.6 µM | 63.2 µM | 29.7 µM | > 100 µM | 33.9 µM | 30.1 µM |  |  |  |  |  |  |  |  |  |  |  |  |
